Legend:
[1] = Transmembrane transport and permeability, chorioamnion; type: in vitro ADME, human; conditions: 0.3 mg/mL
Description: (§1) All human fetal membrane specimens were obtained at the time of cesarean section for obstetrical indications. The fetal membrane comprising chorioamniotic membrane (intact membranous tissue containing both amnion and chorion together) (n=7) and amnion (n=7) and chorion (n=7) were separately procured (size 6×9″). Each membrane was cut into 9 pieces for the 9 sets of diffusion chamber. The fresh membranes were collected immediately after the delivery, washed with PBS to remove the blood and stored in PBS until (˜1 h at 4° C.) it was mounted on the diffusion chamber (37±0.5° C.). Excess membranes were trimmed. The diffusion experiments were performed for 48 hours by mounting the membrane in the chamber to study the transport across the membranes. In all the experiments with chorioamniotic membrane the choriodecidua (maternal side) was placed facing the donor chamber and the amnionic epithelium (fetal side) was facing the receptor chamber. The chorion and amnion were mechanically separated by gently pulling the two membranes apart. For the chorion, the side attached to amnion was placed facing the receptor chamber and for the amnion the side attached to the chorion was placed facing the donor chamber in the diffusion apparatus. For histological evaluation, the tissue samples were collected at 0.5, 1, 2, 3 and 4 hours for and were fixed in 10% formalin overnight. Further, some sections were analyzed by hematoxylin and eosin (H & E) staining. The membrane thickness was measured using the Mitutoyo Super Caliper by placing the respective membranes between the two glass slides and subtracting the thickness of the glass slides without the membrane.
Permeation experiments were carried out using a two-chamber (donor and receptor) side-by-side Permegear diffusion cell with a chamber volume of 3 mL and with a diameter of 13 mm and a diffusional area of 1.32 cm^2. The fetal membranes (chorion and amnion together, amnion and chorion) each (n=9) were mounted between two halves of the donor and receptor cell (9 sets), which were further clamped together and sealed tightly with the rubber packing at the end of each glass chamber. […] The donor cell (volume 3 mL) was filled with solution of compounds whose permeability was evaluated. […] The concentration of compound in the receptor medium was determined using a Molecular Devices SpectroMax M2, UV visible and Fluorescent plate reader at ex 495/em 521. The cumulative amount of compound transported across the membrane in the receptor cell was determined using a calibration curve (a transport of 50% corresponds equilibrium achieved). […]
(§2) [formula] […] The thickness of the chorioamnion, chorion and amnion was 0.22 mm, 0.16 mm and 0.05 mm respectively (n=7), as measured with the help of Mitutoyo Super Caliper. […]

[2] = Transmembrane transport and permeability, chorion; type: in vitro ADME, human; conditions: 0.3 mg/mL
Description: as §1
(§3) Permeation experiments were carried out using a two-chamber (donor and receptor) side-by-side Permegear diffusion cell with a chamber volume of 3 mL and with a diameter of 13 mm and a diffusional area of 1.32 cm^2. The fetal membranes (chorion and amnion together, amnion and chorion) each (n=9) were mounted between two halves of the donor and receptor cell (9 sets), which were further clamped together and sealed tightly with the rubber packing at the end of each glass chamber. The receptor cell (volume 3 mL) was filled with sterile PBS (pH 7.4). The donor cell (volume 3 mL) was filled with solution of compounds whose permeability was evaluated. […] The system was maintained at 37° C. by using a circulating water bath and a jacket surrounding each cell. The donor and receiving medium was continuously stirred (600 rpm) with a magnetic bar to avoid stagnant aqueous diffusion layer effects. Aliquots (200 μL) were collected from the receptor cell every 30 min till first 6 hours and at predetermined intervals thereafter and replaced with equal volume of PBS to maintain sink conditions throughout the study. […] The concentration of compound in the receptor medium was determined using a Molecular Devices SpectroMax M2, UV visible and Fluorescent plate reader at ex 495/em 521. The cumulative amount of compound transported across the membrane in the receptor cell was determined using a calibration curve (a transport of 50% corresponds equilibrium achieved). All the experiments were conducted in dark room. All experiments were done in triplicate and the results are reported as mean±STDev.
as §2

[3] = Transmembrane transport and permeability, amnion; type: in vitro ADME, human
Description: as §1, §3
[formula] To determine the permeability coefficient, P, a plot of −V/2A ln (1−2Ct/C0) against t was constructed and linear fitting was performed. The slope of the linear portion of the graph yields a permeability coefficient. The thickness of the chorioamnion, chorion and amnion was 0.22 mm, 0.16 mm and 0.05 mm respectively (n=7), as measured with the help of Mitutoyo Super Caliper. […] The FIGS. 93A-C and FIG. 94 show the plots used for calculation of the permeability and the correlation in all the cases ranged from 0.96 to 0.99.

[4] = Permeability across the rabbit amniotic membrane (side by side diffusion chamber); type: in vitro ADME; conditions: in 1 hour, 37° C.
Procedure: The permeability of the G4-PAMAM-FITC across the normal rabbit amniotic membrane and endotoxin treated rabbit amniotic membrane was studied using a side by side Permegear diffusion chamber at 37° C. for 48 hours. Endotoxin treated membranes were used to mimic the condition of E. coli infection in uterus. The freshly excised rabbit membranes obtained after sacrificing the rabbit was placed in between the donor and receptor chamber.

[5] = Brain biodistribution of FITC-G4-OH after subarachnoid/subdural injection (microscopy, HPLC); type: in vivo, rabbit; conditions: 24 hours after injection into CSF
Procedure: Animals in each group were euthanized 24 hours after subarachnoid administration of FITC-G4-OH with an overdose of pentobarbital (120 mg/kg administered intra-peritoneal). Following administration of the drug, animals were secured to a stainless steel surgical apparatus, the heart was exposed rapidly and a butterfly needle was inserted and secured in the left apex of the heart, the vena cava was incised and perfusion was initiated. Animals were perfused under pressure with 30 mL chilled physiological saline (0.9%) and 120 mL of 4% paraformaldehyde in phosphate buffer (0.1 M, pH 7.4) at a constant rate of 5 ml/min using a constant pressure pump, brains were removed and immersed in the same fixative for 48 hours, cryoprotected using graded solutions of sucrose and frozen at −80° C. until they were sectioned. […]
Brain tissue samples weighing approximately 1 mg were collected from healthy pups and CP pups and used for analysis. […] The samples were analyzed by HPLC and the amount of dendrimer-FITC quantified using the standard calibration curve for FITC-G4-OH. To estimate the fluorescence as a measure of concentration of FITC-G4-OH localized in hippocampus or cortex, the samples were analyzed by reverse phase-HPLC and the amount was quantified using the standard calibration curve for FITC-G4-OH. […]

[6] = not told; cited from earlier work

Molecule | Permeability coefficient, Chorioamnion [1] | Permeability coefficient, Chorion [2] | Permeability coefficient, Amnion ([3]; 0.3 mg/mL) | transport across amnion ([3]; in 2 hours, 0.3 mg/mL) [%] | transport across amnion ([3]; in 5 hours) [%] | crossed the membrane [4] [%] | regional and cellular distribution in brain [5] | in vitro permeability [6]
fluorescein isothiocyanate [FITC, reference compound] | 7.93×10^−7 cm^2/s | 1.32×10^−6 cm^2/s | 2.26×10^−6 cm^2/s | 49 | 50 | 50 | non-specific uptake in all layers of the cortex and ventricular region | –
CC(C)(N)C(=O)O [2-aminoisobutyrate] | – | – | – | – | – | – | – | 1.5×10^−6 cm^2/s
